Source: PMC4291083, “Ex Vivo Characterization of a Novel Iodine-123-Labelled Aminomethylchroman as a Potential Agonist Ligand for SPECT Imaging of Dopamine D2/3 Receptors” (International Journal of Molecular Imaging, 2014)

Test system: D2/3 receptors
Test: Blocking studies using ex vivo storage phosphor imaging (haloperidol)
Assay type: in vivo
Settings: 2 h p.i., rats
Procedure: To determine whether [^123I]-1 binds selectively to D2/3 receptors in vivo, in the following experiments 5 rats received an i.v. injection of the dopamine receptor blocker haloperidol (1 mg/kg) 5 min prior to the injection with [^123I]-1 (approximately 37 MBq). A control group (n = 5) was injected with 0.4 mL buffer 5 min prior to the injection with the radiopharmaceutical. Two hours after the injection of [^123I]-1 (this time point was based on the results of the classic biodistribution study; see Results) the rats were sacrificed by bleeding through heart puncture under O2/CO2 anaesthesia. The brains were quickly removed and immediately frozen on dry ice. Then the frozen brain was sliced horizontally in 50 μm thick slices. Storage phosphor imaging was done as previously described. In contrast to previous studies, we used a Typhoon FLA 7000 Phosphor imager (GE Healthcare Life Sciences, Uppsala, Sweden) and Hypercassette Amersham Biosciences imaging plates which were scanned at 25 μm pixel size. In this blocking experiment, storage phosphor imaging was used because this offers the opportunity to look into binding in ventral as well as dorsal parts of the striatum. In ventral parts, the expression of dopamine D3 receptors is higher than in more dorsal parts.

For Oc1ccc2c(c1)O[C@@H](CNCc1ccc([123I])cc1)CC2 [[^123I]-1], which specific striatal binding (haloperidol 1 mg/kg i.v. 5 min prior vs control) is on record?
The specific striatal binding was “no specific striatal binding was observed”.

And the “specific binding in other brain areas including the globus pallidus” value?
Its value is “no specific binding”.

What about the “uptake in white matter” value of the same molecule?
The value was “high uptake in white matter”.
